Data published in patent US9822101B1, “Pyrazole compounds” (Eli Lilly and Company, priority 2015, dated 2017).

How the values were obtained:
plasma DPP-4 = biological target: T1, plasma DPP-4 (Mus musculus, UniProt P28843); assay: DPP-4 pharmacodynamics assay in mouse (plasma DPP-4 enzyme activity); format: in vivo; conditions: C57B/L6 lean mice, oral gavage, vehicle group = 0%
T1 construct: Plasma, isolated from the blood samples, is used to determine the plasma DPP-4 enzyme activity; from tissue; host or cells: plasma of C57B/L6 mice dosed with compound
T1 sequence (P28843 37-760 limits assumed): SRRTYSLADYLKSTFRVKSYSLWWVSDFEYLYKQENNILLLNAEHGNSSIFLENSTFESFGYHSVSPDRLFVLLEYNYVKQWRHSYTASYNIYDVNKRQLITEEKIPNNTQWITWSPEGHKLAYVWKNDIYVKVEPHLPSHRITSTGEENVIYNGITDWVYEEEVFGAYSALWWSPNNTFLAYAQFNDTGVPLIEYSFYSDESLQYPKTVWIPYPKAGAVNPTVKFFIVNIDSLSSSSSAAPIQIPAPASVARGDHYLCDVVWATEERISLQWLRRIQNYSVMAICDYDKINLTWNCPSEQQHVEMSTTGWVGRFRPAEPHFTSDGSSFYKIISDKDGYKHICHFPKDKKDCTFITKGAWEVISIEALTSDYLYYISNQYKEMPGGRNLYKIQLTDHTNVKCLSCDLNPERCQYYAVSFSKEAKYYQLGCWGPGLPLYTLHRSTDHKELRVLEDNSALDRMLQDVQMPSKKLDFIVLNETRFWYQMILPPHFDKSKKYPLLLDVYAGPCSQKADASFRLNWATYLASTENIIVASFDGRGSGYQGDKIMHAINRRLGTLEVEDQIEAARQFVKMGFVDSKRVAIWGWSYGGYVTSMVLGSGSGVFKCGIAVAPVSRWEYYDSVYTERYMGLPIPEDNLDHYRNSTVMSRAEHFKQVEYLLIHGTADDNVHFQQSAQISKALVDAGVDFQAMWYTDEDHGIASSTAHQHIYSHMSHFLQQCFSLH
Procedure: To determine the in vivo DPP-4 inhibition by MetAP2 plus DPP-4 dual inhibitor compounds, C57B/L6 lean mice are administrated with the compound in fed states and then DPP-4 target engagement in plasma is measured. Animals are weighed and randomized by body weight. Each mouse is dosed via oral gavage with vehicle or testing compound formulated with vehicle for up to 3 times. The first dose is administrated at 9˜10 am on day 1. The second dose is administrated at 16:30˜17:30 on day 1. The third dose is administrated at 9˜10 am on day 2. The mice are fasted for 6 hours after the last dose before termination at ˜[…] on day 2. Blood samples are collected at 1 hour after the first dosing and upon termination. EDTA-K2 at final concentration of 5 mM is used as an anticoagulant. Plasma, isolated from the blood samples, is used to determine the plasma DPP-4 enzyme activity. Plasma DPP-4 enzyme activity in the present invention is monitored by the formation rate of fluorescence AMC from substrate Gly-Pro-AMC (Sigma, G2761) via Envision plate reader. […] Fluorescence signal is read immediately after the start of the reaction in kinetic model in Envision plate reader. […] The plasma DPP-4 activity is calculated from reaction velocity. […]

[1] = biological target: T2, mouse DPP-4 ((29-760)-His) (Mus musculus, UniProt P28843); assay: Enzymatic activity assay of mouse DPP-4 (Gly-Pro-AMC fluorescence); format: biochemical; conditions: Mean ± SEM; substrate 10 μM, 30 minutes; read-out: mDPP-4 IC50
T2 construct: mouse DPP-4 ((29-760)-His); His (C); made in house
T2 sequence (P28843 29-760): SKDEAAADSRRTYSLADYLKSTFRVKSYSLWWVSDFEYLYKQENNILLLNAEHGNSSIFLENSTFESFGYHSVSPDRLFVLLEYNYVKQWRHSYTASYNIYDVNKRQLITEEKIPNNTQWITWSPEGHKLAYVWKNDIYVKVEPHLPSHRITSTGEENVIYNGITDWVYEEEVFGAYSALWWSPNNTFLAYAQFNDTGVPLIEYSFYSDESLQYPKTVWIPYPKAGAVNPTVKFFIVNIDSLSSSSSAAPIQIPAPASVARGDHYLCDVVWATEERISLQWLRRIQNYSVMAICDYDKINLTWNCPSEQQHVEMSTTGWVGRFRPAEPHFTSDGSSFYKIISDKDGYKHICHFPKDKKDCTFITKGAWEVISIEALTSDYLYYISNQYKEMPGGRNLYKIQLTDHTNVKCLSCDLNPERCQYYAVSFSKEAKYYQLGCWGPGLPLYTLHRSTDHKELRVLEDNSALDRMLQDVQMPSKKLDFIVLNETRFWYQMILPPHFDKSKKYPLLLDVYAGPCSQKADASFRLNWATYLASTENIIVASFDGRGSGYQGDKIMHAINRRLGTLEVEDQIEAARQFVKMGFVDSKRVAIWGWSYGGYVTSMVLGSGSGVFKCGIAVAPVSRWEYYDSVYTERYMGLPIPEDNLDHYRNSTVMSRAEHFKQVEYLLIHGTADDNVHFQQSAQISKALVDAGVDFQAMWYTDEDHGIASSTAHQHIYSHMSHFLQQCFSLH
Procedure: (§1) Human DPP-4 ((39-766)-His) and mouse DPP-4 ((29-760)-His) are purified for use in the assay. The final concentration of hDPP-4 and mDPP-4 in the assay is 0.04 nM and 0.22 nM respectively.
(§2) Inhibition of the catalytic activity of human and mouse DPP-4 by the compound in the present invention is monitored by the formation of product fluorescence AMC (7-amido-4-methylcoumarin hydrobromide) from substrate Gly-Pro-AMC (Sigma, G2761) on an Envision plate reader. The reaction is typically conducted by incubating the enzyme, test compound, and substrate (10 μM) in a 75 μl assay buffer (0.01% BSA, 0.1 mM EDTA, […], 0.01% Triton™-X100, 0.1 M NaCl at pH 7.5) for 30 minutes. After the reaction is stopped by the addition of 25 μl ZnSO4 (10 mM), the formation of fluorescent product AMC is measured on an Envision plate reader with the excitation wavelength at 355 nm and emission wavelength at 460 nm. The IC50 value is calculated typically from a 10-point dose titration curve using the 4-parameter logistic equation.

obese DIO mice = assay: Therapeutic weight loss effect in high fat diet induced obese (DIO) mice; format: in vivo, mouse; conditions: day 14
Procedure: To determine the therapeutic weight loss effects and improvement of metabolic parameters, the compound from the invention is tested in the high fat diet (HFD) feeding induced obese mouse model (DIO mice). In this model, C57/Bl6J male mouse is fed with the 60% HFD (D12492i, Research Diets) for 16˜28 weeks to establish obesity with body weight reaching around 50 g. The mice will gradually increase the body weight to about 50 g and maintain that weight in this obese state. Test compound (via the vehicle of 0.5% HEC plus 0.25% Tween®-80 at 5 mL/kg) is administered orally to the obese DIO mice once or twice daily throughout the study duration. The dose-dependent weight loss of obese DIO mice for Example 1 of the oral treatment at 20 mg/kg and 60 mg/kg once daily is about 4% and 17% weight loss compared to the vehicle group at day 14, respectively. The data support that the compound of Example 1 is associated with desired weight loss and could offer a therapeutic weight loss effect.

mouse MetAP2 = biological target: T3, mouse MetAP2 (Mus musculus, UniProt O08663); assay: Enzymatic activity assay of mouse MetAP2 (LC/MS product peptide); format: biochemical; conditions: Mean ± SEM; substrate 150 μM, 40 minutes; read-out: mMetAP2 IC50
T3 construct: Full length MetAP2 (human and mouse) and MetAP1 (human) proteins are generated from Sf9 cells; made in house; host or cells: Sf9 cells
T3 sequence (O08663 whole entry): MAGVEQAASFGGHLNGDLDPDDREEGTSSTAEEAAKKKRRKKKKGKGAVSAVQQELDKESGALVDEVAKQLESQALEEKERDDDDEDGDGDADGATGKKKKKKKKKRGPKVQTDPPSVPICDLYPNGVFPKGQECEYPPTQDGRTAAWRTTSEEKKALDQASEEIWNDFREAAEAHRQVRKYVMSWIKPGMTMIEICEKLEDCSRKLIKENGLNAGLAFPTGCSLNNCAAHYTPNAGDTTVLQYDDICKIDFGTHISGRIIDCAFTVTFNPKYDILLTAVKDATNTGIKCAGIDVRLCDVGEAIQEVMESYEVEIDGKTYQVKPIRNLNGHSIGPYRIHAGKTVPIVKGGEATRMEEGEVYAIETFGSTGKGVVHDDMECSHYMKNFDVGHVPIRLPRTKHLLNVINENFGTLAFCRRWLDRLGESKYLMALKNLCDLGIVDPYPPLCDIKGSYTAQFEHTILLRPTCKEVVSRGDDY
Procedure: (§3) Full length MetAP2 (human and mouse) and MetAP1 (human) proteins are generated from Sf9 cells using procedure similar to that described in Biochemistry 2003, 42, 5035-5042. MetAP2 and MetAP1 are purified in the presence of 5 mM MnCl2 and 2 mM CoCl2 respectively, and stored at −78° C. before use.
(§4) Inhibition of the catalytic activity of human and mouse MetAP2 by compounds in the present invention is measured by monitoring the formation of the product peptide (Gly-Lys-Val-Lys-Val-Gly-Val-Asn-Gly) from the substrate peptide (Met-Gly-Lys-Val-Lys-Val-Gly-Val-Asn-Gly) via LC/MS. The reaction is typically conducted by incubating the enzyme, test compound and substrate (150 μM) in a 100 μl assay buffer (50 mM HEPES, 100 mM NaCl, […], 0.17 mM Triton™ X-100 μl at pH 7.5) for 40 minutes. After the reaction is stopped by the addition of 200 μl CH3CN, the levels of product and remaining substrate are quantified with a mass spectrometer. The activity of human MetAP1 is monitored by the formation of the fluorescent product rhodamine-methionine from the substrate methionine-rhodamine-methionine on a spectrophotometer with the excitation light at 460 nm and emission light at 535 nm. The reaction is typically conducted by incubating the enzyme, test compound and substrate (50 μM) in a 100 μl assay buffer (50 mM HEPES, 100 mM NaCl, 0.1% BSA, 0.05% Tween®-20, 50 μM CoCl2) for 60 minutes. […]

human MetAP2 = biological target: T4, human MetAP2 (Homo sapiens, UniProt P50579); assay: Enzymatic activity assay of human MetAP2 (LC/MS product peptide); format: biochemical; conditions: Mean ± SEM; substrate 150 μM, 40 minutes; read-out: hMetAP2 IC50
T4 construct: Full length MetAP2 (human and mouse) and MetAP1 (human) proteins are generated from Sf9 cells; made in house; host or cells: Sf9 cells
T4 sequence (P50579 whole entry): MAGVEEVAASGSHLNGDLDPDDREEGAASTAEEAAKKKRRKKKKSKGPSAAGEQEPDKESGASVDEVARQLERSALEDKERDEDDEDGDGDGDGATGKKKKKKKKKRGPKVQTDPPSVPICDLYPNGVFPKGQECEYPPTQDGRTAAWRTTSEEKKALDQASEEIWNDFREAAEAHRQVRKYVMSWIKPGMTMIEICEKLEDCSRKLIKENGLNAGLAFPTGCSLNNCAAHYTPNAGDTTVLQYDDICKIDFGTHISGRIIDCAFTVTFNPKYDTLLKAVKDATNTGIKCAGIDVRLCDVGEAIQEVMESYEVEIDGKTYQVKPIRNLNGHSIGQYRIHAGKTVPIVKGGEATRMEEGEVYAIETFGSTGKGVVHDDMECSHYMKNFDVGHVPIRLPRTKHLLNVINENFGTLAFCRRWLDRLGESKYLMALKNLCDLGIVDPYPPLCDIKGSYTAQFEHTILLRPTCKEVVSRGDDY
Procedure: as §3, §4

human MetAP1 = biological target: T5, human MetAP1 (Homo sapiens, UniProt P53582); assay: Enzymatic activity assay of human MetAP1 (fluorescence, rhodamine-methionine); format: biochemical; conditions: substrate 50 μM, 60 minutes; read-out: hMetAP1 IC50
T5 construct: Full length MetAP2 (human and mouse) and MetAP1 (human) proteins are generated from Sf9 cells; made in house; host or cells: Sf9 cells
Procedure: as §3, §4

[2] = biological target: T6, Human DPP-4 ((39-766)-His) (Homo sapiens, UniProt P27487); assay: Enzymatic activity assay of human DPP-4 (Gly-Pro-AMC fluorescence); format: biochemical; conditions: Mean ± SEM; substrate 10 μM, 30 minutes; read-out: hDPP-4 IC50
T6 construct: Human DPP-4 ((39-766)-His); His (C); made in house
T6 sequence (P27487 39-766): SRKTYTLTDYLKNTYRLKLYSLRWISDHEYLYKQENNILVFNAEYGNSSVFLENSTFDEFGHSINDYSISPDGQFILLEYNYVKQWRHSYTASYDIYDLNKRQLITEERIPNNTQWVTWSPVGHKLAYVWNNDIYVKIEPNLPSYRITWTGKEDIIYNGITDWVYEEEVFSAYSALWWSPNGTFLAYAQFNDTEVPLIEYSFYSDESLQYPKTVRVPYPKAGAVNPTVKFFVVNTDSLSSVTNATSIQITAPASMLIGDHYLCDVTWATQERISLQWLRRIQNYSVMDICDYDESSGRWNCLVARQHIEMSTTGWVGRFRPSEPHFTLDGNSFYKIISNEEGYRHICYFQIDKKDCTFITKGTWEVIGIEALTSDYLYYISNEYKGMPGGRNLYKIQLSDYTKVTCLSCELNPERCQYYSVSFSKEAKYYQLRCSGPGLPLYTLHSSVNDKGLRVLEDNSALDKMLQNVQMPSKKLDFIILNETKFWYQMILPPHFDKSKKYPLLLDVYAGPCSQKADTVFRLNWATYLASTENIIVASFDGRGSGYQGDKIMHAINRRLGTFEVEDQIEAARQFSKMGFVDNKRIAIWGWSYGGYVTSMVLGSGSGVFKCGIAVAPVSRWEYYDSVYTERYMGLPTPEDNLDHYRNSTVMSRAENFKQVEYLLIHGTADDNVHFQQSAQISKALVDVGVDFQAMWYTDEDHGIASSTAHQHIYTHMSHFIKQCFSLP
Procedure: as §1, §2

With `N[C@H]1CN(c2ncc(Oc3c[nH]nc3C3=CCC(F)(F)CC3)cn2)C[C@@H]1c1cc(F)c(F)cc1F` [Example 1, (3R,4S)-1-[5-[[3-(4,4-Difluorocyclohexen-1-yl)-1H-pyrazol-4-yl]oxy]pyrimidin-2-yl]-4-(2,4,5-trifluorophenyl)pyrrolidin-3-amine] the “plasma DPP-4 inhibition” value (plasma DPP-4; 1 hour after the first dosing) was 86%, the “plasma DPP-4 inhibition” value (plasma DPP-4; upon termination (6 hours after the last dose, day 2)) was 83% and the IC50 [1] was 26 ± 11 nM. The “weight loss compared to the vehicle group” value (obese DIO mice; oral 20 mg/kg once daily) was “about 4%”, the “weight loss compared to the vehicle group” value (obese DIO mice; oral 60 mg/kg once daily) was ~17% and the IC50 (mouse MetAP2) was 36 ± 34 nM. The IC50 (human MetAP2) was 9 ± 3 nM, the IC50 (human MetAP1) was > 30000 nM and the IC50 [2] was 6 ± 2 nM.
